Where “and” joins values, the source holds several entries; their conditions need not be identical. Equal values may be shown once. Inconclusive results and toxic doses are left out. Rule for the calls: active = survival T/C of 150% or more; inactive = T/C below 125% in these data.
Test system: CD2F1 mice, L1210 leukemia ip, survival T/C
Test: NCI In Vivo Anticancer Drug Screen. Data for tumor model L1210 Leukemia (intraperitoneal) in CD2F1 (CDF1) mice
Conditions: higher = longer survival
Procedure, shortened: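 Vehicle-treated tumor-bearing mice served as controls (C) for compound-treated mice (T). Reported figure is T divided by C.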

[1] = endpoint: mean survival time, dose: 100.0 mg/kg/injection, schedule: Q01DX009 (ip), vehicle: saline with Tween-80
[2] = endpoint: mean survival time, dose: 100.0 mg/kg/injection, schedule: Q04DX003 (ip), vehicle: saline with Tween-80
[3] = endpoint: mean survival time, dose: 200.0 mg/kg/injection, schedule: Q01DX009 (ip), vehicle: saline with Tween-80
[4] = endpoint: mean survival time, dose: 200.0 mg/kg/injection, schedule: Q04DX003 (ip), vehicle: saline with Tween-80
[5] = endpoint: mean survival time, dose: 400.0 mg/kg/injection, schedule: Q01DX009 (ip), vehicle: saline with Tween-80
[6] = endpoint: mean survival time, dose: 400.0 mg/kg/injection, schedule: Q04DX003 (ip), vehicle: saline with Tween-80
[7] = endpoint: median survival time, dose: 25.0 mg/kg/injection, schedule: Q04DX003 (ip), vehicle: saline with Tween-80
[8] = endpoint: median survival time, dose: 50.0 mg/kg/injection, schedule: Q04DX003 (ip), vehicle: saline with Tween-80
[9] = endpoint: mean survival time, dose: 100.0 mg/kg/injection, schedule: Q04DX002 (ip), vehicle: saline with Tween-80
[10] = endpoint: mean survival time, dose: 400.0 mg/kg/injection, schedule: Q04DX002 (ip), vehicle: saline with Tween-80
[11] = endpoint: mean survival time, dose: 75.0 mg/kg/injection, schedule: Q01DX001 (ip), vehicle: saline
[12] = endpoint: mean survival time, dose: 50.0 mg/kg/injection, schedule: Q01DX009 (ip), vehicle: saline with Tween-80

Measured: T/C

Cc1ccc(S(=O)(=O)Oc2cccc(C)c2)cc1
inactive: [1] 96 % of control | [2] 100 % of control | [3] 96 % of control | [4] 99 % of control | [5] 91 % of control | [6] 94 % of control

CC1(c2cc(F)cc3ccccc23)OC(=O)c2ccccc21 (stereo unspecified)
inactive: [7] 100 % of control | [8] 100 % of control | endpoint: median survival time, dose: 100.0 mg/kg/injection, schedule: Q04DX003 (ip), vehicle: saline with Tween-80 100 % of control | endpoint: median survival time, dose: 200.0 mg/kg/injection, schedule: Q04DX003 (ip), vehicle: saline with Tween-80 100 % of control

CN(C)C(=O)Nc1nc2ccccc2s1
inactive: endpoint: mean survival time, dose: 25.0 mg/kg/injection, schedule: Q04DX002 (ip), vehicle: saline with Tween-80 103 % of control | endpoint: mean survival time, dose: 50.0 mg/kg/injection, schedule: Q04DX002 (ip), vehicle: saline with Tween-80 95 % of control | [9] 115 % of control and 93 % of control | [10] 90 % of control

NCCC(O)C(=O)NC1CC(N)C(OC2OC(CN)C(O)C(O)C2O)C(O)C1OC1OC(CO)C(O)C(N)C1O (stereo unspecified)
inactive: endpoint: mean survival time, dose: 10.0 mg/kg/injection, schedule: Q04DX003 (ip), vehicle: saline 95 % of control | endpoint: mean survival time, dose: 20.0 mg/kg/injection, schedule: Q04DX003 (ip), vehicle: saline 90 % of control | endpoint: mean survival time, dose: 40.0 mg/kg/injection, schedule: Q04DX003 (ip), vehicle: saline 93 % of control

O=S(=O)(NC1CCc2ccccc21)c1ccccc1 (stereo unspecified)
inactive: [2] 98 % of control | [4] 97 % of control | [6] 98 % of control

Cc1cccc(C(=O)NN)c1
inactive: [11] 106 % of control

CC(C)NCC1CC2c3cccc4[nH]cc(c34)CC2N(C)C1 (stereo unspecified)
inactive: [7] 100 % of control | [8] 111 % of control

CN(C)N=C1CCCCC1
inactive: [11] 96 % of control | endpoint: mean survival time, dose: 150.0 mg/kg/injection, schedule: Q01DX001 (ip), vehicle: saline 98 % of control

O=C(CC(=O)C(F)(F)F)c1cccs1.O=C(CC(=O)C(F)(F)F)c1cccs1.O=C(CC(=O)C(F)(F)F)c1cccs1.[Sm]
inactive: endpoint: median survival time, dose: 50.0 mg/kg/injection, schedule: Q04DX002 (ip), vehicle: saline with Tween-80 100 % of control | endpoint: median survival time, dose: 100.0 mg/kg/injection, schedule: Q04DX002 (ip), vehicle: saline with Tween-80 88 % of control | endpoint: median survival time, dose: 200.0 mg/kg/injection, schedule: Q04DX002 (ip), vehicle: saline with Tween-80 100 % of control

CCCC(NC(=O)C(C)Br)C(=O)O (stereo unspecified)
inactive: [2] 95 % of control | [4] 96 % of control | [6] 100 % of control

O=C1CSCC(=O)N1
inactive: endpoint: mean survival time, dose: 100.0 mg/kg/injection, schedule: Q04DX003 (ip), vehicle: other 111 % of control | endpoint: mean survival time, dose: 200.0 mg/kg/injection, schedule: Q04DX003 (ip), vehicle: other 111 % of control | endpoint: mean survival time, dose: 400.0 mg/kg/injection, schedule: Q04DX003 (ip), vehicle: other 98 % of control

CCCCCCCCCCCCCCCCCCCCC1CCCCC1
inactive: endpoint: mean survival time, dose: 100.0 mg/kg/injection, schedule: Q01DX001 (ip), vehicle: saline with Tween-80 91 % of control | endpoint: mean survival time, dose: 200.0 mg/kg/injection, schedule: Q01DX001 (ip), vehicle: saline with Tween-80 98 % of control | endpoint: mean survival time, dose: 400.0 mg/kg/injection, schedule: Q01DX001 (ip), vehicle: saline with Tween-80 92 % of control

Cc1ccc2c(c1)NP(=S)(c1ccccc1)N2 (stereo unspecified)
inactive: [1] 91 % of control | [3] 86 % of control | [5] 94 % of control

Nc1nc(N)c(-c2ccc(Cl)c(Cl)c2)c(/C=C/C=C/c2cccnc2)n1
inactive: [12] 110 % of control | [1] 95 % of control

CCOC(=O)C(CCC(=O)OC)(CCC(=O)OC)C(=O)OCC
inactive: endpoint: mean survival time, dose: 100.0 mg/kg/injection, schedule: Q01DX005 (ip), vehicle: other 95 % of control | endpoint: mean survival time, dose: 100.0 mg/kg/injection, schedule: Q01DX009 (ip), vehicle: other 101 % of control | endpoint: mean survival time, dose: 100.0 mg/kg/injection, schedule: Q04DX002 (ip), vehicle: other 88 % of control | endpoint: mean survival time, dose: 200.0 mg/kg/injection, schedule: Q01DX005 (ip), vehicle: other 91 % of control | endpoint: mean survival time, dose: 200.0 mg/kg/injection, schedule: Q01DX009 (ip), vehicle: other 97 % of control | endpoint: mean survival time, dose: 200.0 mg/kg/injection, schedule: Q04DX002 (ip), vehicle: other 92 % of control | endpoint: mean survival time, dose: 400.0 mg/kg/injection, schedule: Q01DX005 (ip), vehicle: other 91 % of control | endpoint: mean survival time, dose: 400.0 mg/kg/injection, schedule: Q01DX009 (ip), vehicle: other 86 % of control | endpoint: mean survival time, dose: 400.0 mg/kg/injection, schedule: Q04DX002 (ip), vehicle: other 95 % of control

Nc1ccccc1CO
inactive: [2] 100 % of control | [4] 95 % of control | [6] 95 % of control

C=C(CC(=O)OC)C(=O)O
inactive: endpoint: mean survival time, dose: 12.5 mg/kg/injection, schedule: Q01DX009 (ip), vehicle: saline 98 % of control | endpoint: mean survival time, dose: 25.0 mg/kg/injection, schedule: Q01DX009 (ip), vehicle: saline 98 % of control | endpoint: mean survival time, dose: 50.0 mg/kg/injection, schedule: Q01DX009 (ip), vehicle: saline 107 % of control | [2] 95 % of control | [4] 98 % of control | [6] 97 % of control

Cc1ccc(NC(=O)N2CCN(C)CC2)cc1[N+](=O)[O-]
inactive: [12] 94 % of control | [1] 90 % of control | [3] 94 % of control

COc1ccc(-c2cc(-c3ccccc3)n[nH]2)cc1
inactive: [2] 93 % of control | [4] 97 % of control | [6] 93 % of control

COc1ccc([N+](=O)[O-])cc1NC(=O)Nc1ccccc1Cl
inactive: [9] 86 % of control | endpoint: mean survival time, dose: 200.0 mg/kg/injection, schedule: Q04DX002 (ip), vehicle: saline with Tween-80 93 % of control | [10] 104 % of control

NNC(=O)COc1ccc(Cl)cc1Cl
inactive: endpoint: mean survival time, dose: 25.0 mg/kg/injection, schedule: Q01DX009 (ip), vehicle: saline with Tween-80 102 % of control | [12] 105 % of control | [1] 104 % of control

OC(CC1=NNC(=S)NC1)(C(F)(F)F)C(F)(F)F
inactive: [12] 94 % of control | [1] 89 % of control

Cc1ccc(N=C2C=CC(=O)O2)cc1
inactive: [2] 98 % of control | [4] 104 % of control | [6] 101 % of control

O=C1CCC(=O)N1CC(O)COc1ccc(Cl)cc1 (stereo unspecified)
inactive: [2] 95 % of control | [4] 98 % of control | [6] 95 % of control

O=C(Cc1ccccc1)NC(CSSCC(NC(=O)Cc1ccccc1)C(=O)O)C(=O)O (stereo unspecified)
inactive: [1] 101 % of control | [3] 98 % of control | [5] 93 % of control

c1ccc(P(c2ccccc2)c2ccccc2)cc1
inactive: [12] 96 % of control | [1] 100 % of control | [2] 100 % of control | [3] 98 % of control | [4] 100 % of control | [6] 93 % of control

O=C(CNC(=O)OCc1ccccc1)NCC(=O)NC(CO)C(=O)O (stereo unspecified)
inactive: [2] 95 % of control | [4] 104 % of control | [6] 96 % of control

NC(N)=NC(N)=Nc1ccc(Cl)c(Cl)c1
inactive: endpoint: mean survival time, dose: 50.0 mg/kg/injection, schedule: Q01DX001 (ip), vehicle: Klucel (hydroxypropylcellulose) (HPC) 94 % of control | endpoint: mean survival time, dose: 100.0 mg/kg/injection, schedule: Q01DX001 (ip), vehicle: Klucel (hydroxypropylcellulose) (HPC) 105 % of control | endpoint: mean survival time, dose: 150.0 mg/kg/injection, schedule: Q01DX009 (ip), vehicle: saline 108 % of control | endpoint: mean survival time, dose: 200.0 mg/kg/injection, schedule: Q01DX001 (ip), vehicle: Klucel (hydroxypropylcellulose) (HPC) 94 % of control

O=C(O)COc1cccc(OCC(=O)O)c1
inactive: [2] 100 % of control | endpoint: mean survival time, dose: 100.0 mg/kg/injection, schedule: Q04DX003 (ip), vehicle: saline 96 % of control | [4] 91 % of control | endpoint: mean survival time, dose: 200.0 mg/kg/injection, schedule: Q04DX003 (ip), vehicle: saline 94 % of control | endpoint: mean survival time, dose: 400.0 mg/kg/injection, schedule: Q04DX003 (ip), vehicle: saline 100 % of control
